Here are results for 30 compounds from ChEMBL document CHEMBL5518174 (Eur J Med Chem, 2024).

For one experiment, the target named is Histone deacetylase. The experiment is described as follows: Inhibition of HDAC in human HeLa cells nuclear extract. In kind it is subcellular, Nucleus.
The subject of experiment [1] is NCI-H1975. In words: cells. The conditions noted are these: Homo sapiens, NCI-H1975, 48 h. In kind it is functional, cell-based.
Description: Cytotoxicity against human NCI-H1975 cells assessed as inhibition of cell growth incubated for 48 hrs by Celltiter-glo assay
Another experiment concerns MDA-MB-231. The experiment is described as follows: Cytotoxicity against human MDA-MB-231 cells assessed as inhibition of cell growth incubated for 48 hrs by Celltiter-glo assay. It is filed as functional, cell-based. Particulars: MDA-MB-231, 48 h. A general note: Cellular ATP, detected with luciferase, serves as a proxy for viable cell number.
Experiment [2] can be described thus: Antiproliferative activity against human CL1-5 cells harboring wild-type EGFR assessed as inhibition of cell growth by SRB assay. In kind it is functional, cell-based. (In SRB staining, fixed cells bind dye roughly in proportion to their protein.)
The nature of experiment [3]: Antiproliferative activity against human CL100 cells harboring mutated EGFR assessed as inhibition of cell growth by SRB assay. In kind it is functional, cell-based.
Experiment [4] is described as follows: Antiproliferative activity against human CL141 cells harboring wild-type EGFR assessed as inhibition of cell growth by SRB assay. In kind it is functional, cell-based.
Experiment [5] in a line: Antiproliferative activity against human CL83 cells harboring wild-type EGFR assessed as inhibition of cell growth by SRB assay. It is filed as functional, cell-based.
Another experiment relates to CL1-0. The experiment is described as follows: Antiproliferative activity against human CL1-0 cells harboring wild-type EGFR assessed as inhibition of cell growth by SRB assay. In kind it is functional, cell-based.
Experiment [6] is described as follows: Antiproliferative activity against human CL25 cells harboring mutated EGFR assessed as inhibition of cell growth by SRB assay. In kind it is functional, cell-based.
In experiment [7] the test system is NCI-H1975. The experiment is described as follows: Induction of katanin activation mediated microtubule fragmentation in human NCI-H1975 cells at 80 nM incubated for 12 hrs by FITC/DAPI staining based confocal laser microscopic analysis. It is filed as cell-based. The conditions noted are these: filed as activator.
For the next experiment, the system named is CL97. The experiment is described as follows: Antiproliferative activity against human CL97 cells harboring mutated EGFR assessed as inhibition of cell growth by SRB assay. It is filed as functional, cell-based.
Experiment [8] can be described thus: Antiproliferative activity against human CL152 cells harboring wild-type EGFR assessed as inhibition of cell growth by SRB assay. It is filed as functional, cell-based.

Active and inactive are the calls of the source. No cut-off for these calls is given here.

With `CCOc1ccc(-c2nc(C(=O)NCCCCNC(=O)CN)c3[nH]c(=O)n(-c4ccccc4OC)c3n2)cc1.Cl`, the results for the IC50 against Histone deacetylase and in the experiment on NCI-H1975 [1] were more than 100 µM and 16.2 µM, respectively.

For the compound `CCOc1ccc(-c2nc(C(=O)NCCCCCCC(=O)N(Cc3ccccn3)Cc3ccccn3)c3[nH]c(=O)n(-c4ccccc4OC)c3n2)cc1`, the IC50 (commonly the concentration that gives 50% inhibition) against Histone deacetylase was more than 100 µM; with NCI-H1975 [1], 2.3 µM.

Take `CCOc1ccc(-c2nc(C(=O)NCCCCCCCN(Cc3ccccn3)Cc3ccccn3)c3[nH]c(=O)n(-c4ccccc4OC)c3n2)cc1`: the IC50 against Histone deacetylase is more than 100 µM; in the experiment on NCI-H1975 [1] it was 2.7 µM.

In the case of `COc1ccc(-c2nc(C(=O)NCCCCCCC(=O)NO)c3[nH]c(=O)n(-c4ccccc4OC)c3n2)cc1O`, the IC50 at Histone deacetylase worked out at 0.01 µM; in the experiment on MDA-MB-231, 0.31 µM; in the experiment with NCI-H1975 [1], 1.2 µM.

For `CCOc1ccc(-c2nc(C(=O)NCCCCCCC(=O)NO)c3[nH]c(=O)n(-c4ccccc4OC)c3n2)cn1`, the IC50 turned out to be 0.04 µM at Histone deacetylase, 0.06 µM in the experiment on MDA-MB-231 and 0.4 µM in the experiment on NCI-H1975 [1].

In the case of `CCOc1ccc(-c2nc(C(N)=O)c3[nH]c(=O)n(-c4ccccc4OC)c3n2)cc1`, the IC50 at Histone deacetylase was more than 100 µM.

With `CCOc1ccc(-c2nc(C(=O)NCCCCCCC(=O)NO)c3[nH]c(=O)n(-c4cccnc4OC)c3n2)cc1`, the figures for the IC50 against Histone deacetylase, in the experiment with MDA-MB-231 and in the experiment on NCI-H1975 [1] were 0.03 µM, 0.06 µM and 0.3 µM, respectively.

As for `CCOc1ccc(-c2nc(C(=O)NCCCCCCC(=O)Nc3nccs3)c3[nH]c(=O)n(-c4ccccc4OC)c3n2)cc1`, the IC50 is more than 100 µM at Histone deacetylase and 2.6 µM in the experiment on NCI-H1975 [1].

As to `CCOc1ccc(-c2nc(C(=O)O)c3[nH]c(=O)n(-c4ccccc4OC)c3n2)cc1`, the IC50 on Histone deacetylase and in the experiment on NCI-H1975 [1] was more than 100 µM in each case.

In the case of `CCOc1ccc(-c2nc(C(=O)NCCCCCCC(=O)NC3CCCCC3O)c3[nH]c(=O)n(-c4ccccc4OC)c3n2)cc1` (centres undefined), the IC50 was more than 100 µM on Histone deacetylase and 1.4 µM with NCI-H1975 [1].

For the compound `CCOc1ccc(-c2nc(C(=O)NCCCCCCNC(N)=O)c3[nH]c(=O)n(-c4ccccc4OC)c3n2)cc1`, the IC50 at Histone deacetylase is more than 100 µM; with NCI-H1975 [1], 2 µM.

As to `CCOc1ccc(-c2nc(C(=O)NO)c3[nH]c(=O)n(-c4ccccc4OC)c3n2)cc1`, at Histone deacetylase, the IC50 was more than 100 µM.

As for `CCOc1ccc(-c2nc(C(=O)NCCCCCCC(=O)NOC)c3[nH]c(=O)n(-c4ccccc4OC)c3n2)cc1`, the IC50 against Histone deacetylase was more than 100 µM; with NCI-H1975 [1], 0.4 µM.

Regarding `CCOc1ccc(-c2nc(C(=O)NCCCCC/C(N)=N/O)c3[nH]c(=O)n(-c4ccccc4OC)c3n2)cc1`, the figures for the IC50 against Histone deacetylase and in the experiment on NCI-H1975 [1] were more than 100 µM and 0.5 µM, respectively.

On to `CCOc1ccc(-c2nc(C(=O)NCCCCCCC(=O)CSC(C)=O)c3[nH]c(=O)n(-c4ccccc4OC)c3n2)cc1`, for which the IC50 came out at 2.83 µM at Histone deacetylase and 5.6 µM with NCI-H1975 [1].

As to `CCOc1ccc(-c2nc(C(=O)NCCCCCCC(=O)O)c3[nH]c(=O)n(-c4ccccc4OC)c3n2)cc1`, the values for the IC50 on Histone deacetylase and in the experiment on NCI-H1975 [1] were more than 100 µM and 3.4 µM, respectively.

As for `CCOc1ccc(-c2nc(C(=O)NCCCCCCC(=O)NO)c3[nH]c(=O)n(-c4cccnc4OC)c3n2)cn1`, the half-maximal inhibitory concentration (IC50) against Histone deacetylase turned out to be 0.002 µM; in the experiment with MDA-MB-231 it was 0.32 µM; in the experiment with NCI-H1975 [1], 0.41 µM.

Turning to `CCOc1ccc(-c2nc(C(=O)NCCCCCCC(=O)NO)c3[nH]c(=O)n(-c4ccccc4OC)c3n2)cc1S(N)(=O)=O`, the IC50 is 0.06 µM against Histone deacetylase and 24.8 µM with NCI-H1975 [1].

Regarding `COc1ccccc1-n1c(=O)[nH]c2c(C(N)=O)nc(-c3ccc(C(C)C)cc3)nc21`, the IC50 against Histone deacetylase and with NCI-H1975 [1] was more than 100 µM each time.

In the case of `CCOc1ccc(-c2nc(C(=O)NCCOCCOCC(=O)NO)c3[nH]c(=O)n(-c4ccccc4OC)c3n2)cc1`, the IC50 on Histone deacetylase was 10.8 µM; in the experiment on NCI-H1975 [1], 4.6 µM.

`CCOc1ccc(-c2nc(C(=O)NCCCCCNC(=O)CN)c3[nH]c(=O)n(-c4ccccc4OC)c3n2)cc1.Cl`: the figures for the IC50 against Histone deacetylase and in the experiment with NCI-H1975 [1] were more than 100 µM and 4.9 µM, respectively.

Take `CCOc1ccc(-c2nc(C(=O)NCCCCCCC(=O)Nc3ccccc3N)c3[nH]c(=O)n(-c4ccccc4OC)c3n2)cc1`: the IC50 at Histone deacetylase was more than 100 µM; in the experiment with NCI-H1975 [1] it was 2.2 µM.

As for `CCOc1ccc(-c2nc(C(=O)NCCCCCCC(=O)N(C)O)c3[nH]c(=O)n(-c4ccccc4OC)c3n2)cc1`, the IC50 was more than 100 µM on Histone deacetylase and 1.5 µM in the experiment on NCI-H1975 [1].

In the case of `CCOc1ccc(-c2nc(C(=O)NCc3ccc(C(=O)NO)cc3)c3[nH]c(=O)n(-c4ccccc4OC)c3n2)cc1`, the results for the IC50 at Histone deacetylase, with MDA-MB-231 and in the experiment on NCI-H1975 [1] were 0.25 µM, 0.07 µM and 0.13 µM, respectively.

For `CCOc1ccc(-c2nc(C(=O)NCCCCCCNC(=O)NO)c3[nH]c(=O)n(-c4ccccc4OC)c3n2)cc1`, the IC50 is more than 100 µM at Histone deacetylase and 3.3 µM in the experiment on NCI-H1975 [1].

On to `COc1ccccc1-n1c(=O)[nH]c2c(C(=O)NCCCCCCC(=O)NO)nc(C(C)C)nc21`, for which the figures for the IC50 against Histone deacetylase and with NCI-H1975 [1] were 0.2 µM and 1.5 µM, respectively.

For `CCOc1ccc(-c2nc(C(=O)NCCCCCCNC(=O)CN)c3[nH]c(=O)n(-c4ccccc4OC)c3n2)cc1.Cl`, the IC50 was more than 100 µM against Histone deacetylase and 2.4 µM in the experiment on NCI-H1975 [1].

Regarding `CCOc1ccc(-c2nc(C(=O)NOCCCCCC(=O)NO)c3[nH]c(=O)n(-c4ccccc4OC)c3n2)cc1`, the half-maximal inhibitory concentration (IC50) turned out to be 0.13 µM at Histone deacetylase, 0.1 µM in the experiment on MDA-MB-231 and 0.25 µM in the experiment with NCI-H1975 [1].

In the case of `CCOc1ccc(-c2nc(C(=O)NCCCCCCC(=O)NO)c3[nH]c(=O)n(-c4ccccc4OC)c3n2)cc1`, the IC50 in experiment [2] worked out at 0.17 µM; in [3] it was 0.36 µM; on Histone deacetylase, 0.17 µM; in experiment [4] it was 0.27 µM; in experiment [5] it was 0.32 µM; in the experiment on CL1-0, 0.06 µM. In addition, the IC50 was 0.32 µM in experiment [6]; 0.24 µM with CL97; 0.26 µM in experiment [8]; 0.04 µM in the experiment on MDA-MB-231; 0.14 µM in the experiment on NCI-H1975 [1]. In the experiment with NCI-H1975 [7], the result was Active.

Regarding `CCOc1ccc(-c2nc(C(=O)NCCCc3nc(C(=O)NO)cs3)c3[nH]c(=O)n(-c4ccccc4OC)c3n2)cc1`, the half-maximal inhibitory concentration (IC50) against Histone deacetylase was found to be 14.2 µM; in the experiment with NCI-H1975 [1], 4.9 µM.
